Source: US20110034335A1, “Treatment of Ornamental Plants” (priority 2009, published 2011)

Key:
Assay type in all cases: in vivo
Petunia = assay: Spray with 1-MCP solutions with or without Silwet L-77, ethylene challenge (Example 6)
Method: (§1) Spray applications were made using (unless otherwise noted) AFxRD-038 powder containing 3.8% active ingredient, i.e. 1-MCP, and also containing dextrose, alpha-cyclodextrin, and amino acid salt. Rates listed are for active ingredient e.g. 5 mg active ingredient per liter. Sprayed liquid contained (unless otherwise noted) AFxRD-038 powder added to water. AFxRD-038 powder was obtained from AgroFresh Inc. The water used (unless otherwise noted) was tap water. Applications were done in 500 ml spray bottles at rates typical for growth regulators applications in the ornamental industry i.e., 200 ml per square meter. Spraying was done within 5-15 minutes of mixing the formulation. Plants were allowed to dry for 1-4 hours before being challenged with ethylene (2 ppm for about 16 hours at ambient temperatures).
(§2) Surfactant Silwet™ L-77 (called “surf” below) was sometimes included to evaluate the effect of surfactant on efficacy. Silwet™ L-77 was used in the form of a pure liquid. The amounts shown below as “ml/L” refer to milliliters of pure Silwet™ L-77 per liter of liquid CP composition.
Bud wilting (%) of Petunia (in six-pack trays) sprayed with 1-MCP solutions with or without Silwet™ L-77 surfactant and challenged with ethylene.

‘Sonnet’ snapdragon = assay: Spray with 1-MCP solutions with or without Silwet L-77, ethylene challenge (Example 2); conditions: for Bud or Flower Abscission (%): Day 5
Method: as §1, §2
Kalanchoe (unknown cultivar), ‘Candy Stripe’ phlox and ‘Sonnet’ snapdragon (all in pots of diameter 10 cm (4 inch)) were sprayed with 1-MCP solutions, with or without Silwet™ L-77 surfactant (specific gravity 1.007), and challenged with ethylene.
For Kanlanchoe, we observed the percent of plants on which one or more flowers died by wilting, whether or not it stayed on the plant. For Phlox and Snapdragon, we observed the percent of plants on which one or more flowers or one or more buds underwent abscission.

‘Magenta’ Impatiens = assay: Spray with 1-MCP solutions with Silwet L-77, ethylene challenge (Example 5); conditions: for Wilt and/or Abscission (%): surf. 0.25 ml/L
Method: as §1, §2

CC1=CC1 [1-MCP, 1-methylcyclopropene]
Bud Wilting (%) (Petunia; 1-MCP 1 mg/L, surf 0 ml/L, Day 5): 89%
Bud Wilting (%) (Petunia; 1-MCP 1 mg/L, surf 0 ml/L, Day 9): 93%
Bud Wilting (%) (Petunia; 1-MCP 1 mg/L, surf 0.25 ml/L, Day 5): 76%
Bud Wilting (%) (Petunia; 1-MCP 1 mg/L, surf 0.25 ml/L, Day 9): 93%
Bud Wilting (%) (Petunia; 1-MCP 2.5 mg/L, surf 0 ml/L, Day 5): 74%
Bud Wilting (%) (Petunia; 1-MCP 2.5 mg/L, surf 0 ml/L, Day 9): 91%
Bud Wilting (%) (Petunia; 1-MCP 2.5 mg/L, surf 0.25 ml/L, Day 5): 68%
Bud Wilting (%) (Petunia; 1-MCP 2.5 mg/L, surf 0.25 ml/L, Day 9): 85%
Bud Wilting (%) (Petunia; 1-MCP 5 mg/L, surf 0 ml/L, Day 5): 63%
Bud Wilting (%) (Petunia; 1-MCP 5 mg/L, surf 0 ml/L, Day 9): 71%
Bud Wilting (%) (Petunia; 1-MCP 5 mg/L, surf 0.25 ml/L, Day 5): 57%
Bud Wilting (%) (Petunia; 1-MCP 5 mg/L, surf 0.25 ml/L, Day 9): 67%
Bud Wilting (%) (Petunia; 1-MCP 10 mg/L, surf 0 ml/L, Day 5): 34%
Bud Wilting (%) (Petunia; 1-MCP 10 mg/L, surf 0 ml/L, Day 9): 52%
Bud Wilting (%) (Petunia; 1-MCP 10 mg/L, surf 0.25 ml/L, Day 5): 37%
Bud Wilting (%) (Petunia; 1-MCP 10 mg/L, surf 0.25 ml/L, Day 9): 50%
protection against ethylene (‘Sonnet’ snapdragon; 1-MCP 5 mg/L): sufficient in giving protection against ethylene
Bud or Flower Abscission (%) (‘Sonnet’ snapdragon; 1-MCP 5 mg/L, surf 0 ml/L): 19.9%
Bud or Flower Abscission (%) (‘Sonnet’ snapdragon; 1-MCP 5 mg/L, surf 0.25 ml/L): 0.0%
Bud or Flower Abscission (%) (‘Sonnet’ snapdragon; 1-MCP 10 mg/L, surf 0 ml/L): 4.4%
Bud or Flower Abscission (%) (‘Sonnet’ snapdragon; 1-MCP 10 mg/L, surf 0.25 ml/L): 3.3%
Bud or Flower Abscission (%) (‘Sonnet’ snapdragon; 1-MCP 25 mg/L, surf 0 ml/L): 7.4%
Bud or Flower Abscission (%) (‘Sonnet’ snapdragon; 1-MCP 25 mg/L, surf 0.25 ml/L): 3.3%
phytotoxicity on flowers (‘Sonnet’ snapdragon; 1-MCP 50 mg/L): did not result in any phytotoxicity
Bud or Flower Abscission (%) (‘Sonnet’ snapdragon; 1-MCP 50 mg/L, surf 0 ml/L): 6.4%
Bud or Flower Abscission (%) (‘Sonnet’ snapdragon; 1-MCP 50 mg/L, surf 0.25 ml/L): 8.9%
phytotoxicity to the open florets (‘Sonnet’ snapdragon; the highest rates of 1-MCP): caused phytotoxicity to the open florets
Wilt and/or Abscission (%) (‘Magenta’ Impatiens; 1-MCP 5 mg/L): 3%
Wilt and/or Abscission (%) (‘Magenta’ Impatiens; 1-MCP 10 mg/L): 2%
Wilt and/or Abscission (%) (‘Magenta’ Impatiens; 1-MCP 25 mg/L): 5%
Wilt and/or Abscission (%) (‘Magenta’ Impatiens; 1-MCP 50 mg/L): 0%
phytotoxicity (‘Magenta’ Impatiens; even at the highest rates with Silwet L-77): No phytotoxicity was observed
